Results: patent publication US11298358B2, “Combination therapy using ascochlorin derivative” (priority 2017, dated 2022)
Where two headings read alike, the source gives them in different places. Values belong to the compound of their own block, whether it stands above or below them.

Key:
U87-MG = assay: Anti-proliferative activity, CellTiterGlo assay, U87-MG; assay type: cell-based; settings: Homo sapiens, U-87 MG, 96 hrs incubation, read-out: Antiproliferative activities (IC50) U87-MG
Protocol: (§1) The anti-proliferative activities of the compounds against 6 human cancer cell lines were determined by CellTiterGlo assay kit. All cells were obtained from ATCC and cultured as recommended by the vendor. Cells were assayed in exponential growth phase. Sample solution was prepared by 3-fold serial dilution from 30 mM stock for 10 doses in DMSO. Antiproliferative activities were measured by CellTiterGlo assay kit according to the protocol after cells were incubated for 96 hrs in a 37° C., 5% CO2 incubator.
(§2) On the 4th day of incubation, i) 15 μl reagent (CelltiterGlo assay kit) was added per well and plate was shaken (avoiding light) for 2 mins on a plate shaker, ii) the plate was kept (avoiding light) in room temperature for 30 min, and iii) the luminescence value was recorded by Multiplate reader.

LNCaP = assay: Anti-proliferative activity, CellTiterGlo assay, LNCaP; assay type: cell-based; settings: Homo sapiens, 96 hrs incubation, read-out: Antiproliferative activities (IC50) LNCaP
Protocol: as §1, §2

A549 = assay: Anti-proliferative activity, CellTiterGlo assay, A549; assay type: cell-based; settings: Homo sapiens; A549, 96 hrs incubation; read-out: Antiproliferative activities (IC50) A549
Protocol: as §1, §2

HT29 = assay: Anti-proliferative activity, CellTiterGlo assay, HT29; assay type: cell-based; settings: Homo sapiens, HT-29; HT29, 96 hrs incubation; read-out: Antiproliferative activities (IC50) HT29
Protocol: as §1, §2

[1] = Stability against mouse liver microsomes; assay type: in vitro ADME; settings: 2 μM compound
Protocol: (§3) Determination of Stability Against Mouse and Human Microsomes
(§4) Pooled human liver microsomes (Cat. 452161; Lot. 23418) were purchased from Corning and pooled male mouse liver microsomes (Cat. M1000; Lot. 1210302) were purchased from Xenotech. Microsomes were stored at −80° C. prior to use. 40 μL of ultra-pure H2O was used instead of NADPH solution in the negative control. The negative control was used to exclude the misleading factor that was resulted from instability of chemical itself. Samples with NADPH were prepared in duplicate. Negative controls were prepared in singlet.
(§5) The reaction was started with the addition of 4 μL of 200 μM compound solution to each master solution to get the final concentration of 2 μM. Verapamil was used as positive control in the assay. Aliquots of 50 μL were taken from the reaction solution at 0, 15, 30, 45 and 60 min. The reaction was stopped by addition of 4 volumes of cold acetonitrile with IS (200 nM imipramine, […] labetalol and 2 μM ketoprofen). Samples were centrifuged at 3,220 g for 40 minutes. Aliquot of 90 μL of the supernatant was mixed with 90 μL of ultra-pure H2O and then was used for LC-MS/MS analysis. Results are shown in Table 3 by indicating remaining % of the test compound after 60 minutes incubation with liver microsomes from human and mouse in the presence of NADPH.

BxPC-3 = assay: Anti-proliferative activity, CellTiterGlo assay, BxPC-3; assay type: cell-based; settings: Homo sapiens; BxPC-3, 96 hrs incubation; read-out: Antiproliferative activities (IC50) BxPC-3
Protocol: as §1, §2

[2] = Stability against human liver microsomes; assay type: in vitro ADME; settings: 2 μM compound
Protocol: as §3, §4, §5

MDA-MB-231 = assay: Anti-proliferative activity, CellTiterGlo assay, MDA-MB-231; assay type: cell-based; settings: Homo sapiens; MDA-MB-231, 96 hrs incubation; read-out: Antiproliferative activities (IC50) MDA-MB-231
Protocol: as §1, §2

AMPK in HepG2 cell = settings: HepG2 cells, reported in the literature; cited from earlier work
[3] = Solubility in pH4.0 and pH7.4 phosphate buffer solution; settings: 2 hr incubation, 25° C.
Protocol: 1) Preparation of Stock Solutions
The stock solutions of test compounds and positive control compound were prepared in DMSO at the concentration of 30 mM. Diclofenac was used as positive control in the assay.
2) Procedures for Solubility Determination
The stock solution of each compound (10 μL) was placed in order into their proper 96-well rack, followed by adding 990 μL of PBS at pH 4.0 and pH 7.4 into each vial of the cap-less Solubility Sample plate. This study was performed in duplicate. One stir stick was added to each vial and then vials were sealed using a molded PTDE/SIL 96-Well Plate Cover. The Solubility Sample plate was transferred to the Thermomixer Comfort plate shaker and incubated at 25° C. for 2 hours with shaking at 1,100 rpm. After 2 hours incubation, stir sticks were removed using a big magnet and all samples from the Solubility Sample plate were transferred into the filter plate. All the samples were filtered by using the vacuum manifold. The filtered samples were diluted with methanol.
3) Samples Analyzed by LC-MS/MS:
The LC system comprised a Shimadzu liquid chromatograph separation system equipped with degasser DGU-20A3, solvent delivery unit LC-20AD, system controller CBM-20A, column oven CTO-10ASVP and CTC Analytics HTC PAL System. Mass spectrometric analysis was performed using an API 4000 instrument from AB Inc (Canada) with an ESI interface.

CT26 tumor cells = assay: Efficacy study in CT26 syngeneic mouse model; assay type: in vivo; settings: for antitumor activity (in words): Cmpd 19 alone
Protocol: An efficacy study was conducted by using Compound 19 (Cmpd 19) with CT26 syngeneic mouse model. Female BALB/c mice (Vital River, Beijing, China) of 7 to 9 weeks old with body weight between 19 and 21 g were used. Each mouse was inoculated subcutaneously on the right flank with CT26 tumor cells (2×10^5) in 0.1 mL of PBS for tumor development. On Day 5 after tumor inoculation, mice were randomized into groups. Each group consisted of 10 tumor-bearing mice. The treatment with Cmpd 19 was then started on Day 5.
As an anti PD-1 antibody, anti-mouse PD-1 antibody (CD279, Clone: RMP1-14, Catalog #: BE0146 from Bio X Cell) was used.
The measurement of tumor size was conducted three times weekly with calipers, and the tumor volume (mm^3) is estimated using the formula: TV=(a×b^2)/2, where “a” and “b” are long and short diameters of a tumor, respectively. The TVs were used for calculation of the tumor growth inhibition (TGI, an indicator of antitumor effectiveness), using formula: TGI=(1−T/C)×100%, where “T” and “C” are the mean relative volumes (% tumor growth) of the tumors in the treated and the control groups. Data were analyzed using GraphPad Software and represented as the mean value±SD in FIG. 3 in which error bars are shown. The p values were assessed using One-Way ANOVA Dunnett test and vehicle control (G1) as control group. A case with p<0.05 was considered as statistically significant.

[4] = G3: Cmpd 19 50 mg/kg p.o. once a day x 18
[5] = G4: Cmpd 19 25 mg/kg p.o. once a day x 18

- IC50 (U87-MG): 13.1 µM
- IC50 (LNCaP): 7.2 µM
- IC50 (A549): 6.5 µM
- IC50 (HT29): 10 µM
- Liver microsome stability remaining % after 60 min incubation with NADPH, mouse LM [1]: 71%
- IC50 (BxPC-3): 12.8 µM
- Liver microsome stability remaining % after 60 min incubation with NADPH, human LM [2]: 71%
- IC50 (MDA-MB-231): 6.8 µM
Compound: COc1c(Cl)c(C)c(/C=N/O)c(O)c1C/C=C(C)/C=C/[C@@]1(C)[C@H](C)CC[C@](C)(O)[C@@H]1C [Compound 7, 4-chloro-2-[(2E,4E)-5-[(1R,2R,3S,6R)-3-hydroxy-1,2,3,6-tetramethylcyclohexyl]-3-methylpenta-2,4-dien-1-yl]-6-[(1E)-(hydroxyimino)methyl]-3-methoxy-5-methylphenol]

Compound: CN(C)C(=N)N=C(N)N [Metformin]
- AMPK activation in HepG2 cell (AMPK in HepG2 cell): only at surprisingly high concentration of mM level

- Liver microsome stability remaining % after 60 min incubation with NADPH, mouse LM [1]: 88%
- Liver microsome stability remaining % after 60 min incubation with NADPH, human LM [2]: 99%
Compound: CO/N=C/c1c(C)c(Cl)c(OC)c(C/C=C(C)/C=C/[C@@]2(C)[C@H](C)CC[C@](C)(O)[C@@H]2C)c1O [Compound 14, 4-chloro-2-[(2E,4E)-5-[(1R,2R,3S,6R)-3-hydroxy-1,2,3,6-tetramethylcyclohexyl]-3-methylpenta-2,4-dien-1-yl]-3-methoxy-6-[(1E)-(methoxyimino)methyl]-5-methylphenol]

- Solubility pH 4.0 PBS ([3]; pH 4.0 phosphate buffer solution): converted to MAC
- Solubility pH 7.4 PBS ([3]; pH 7.4 phosphate buffer solution): 0.02 μM
Compound: COc1c(Cl)c(C)c(C=NCC(N)=O)c(O)c1C/C=C(C)/C=C/[C@@]1(C)[C@H](C)CCC(=O)[C@@H]1C [compound #13 in WO2004/074236]

Compound: CO/N=C/c1c(C)c(Cl)c(OC)c(C/C=C(C)/C=C/[C@@]2(C)[C@H](C)CC/C(=N\OCC(=O)O)[C@@H]2C)c1O [Compound 19, 2-([[(1E,2R,3R,4R)-3-[(1E,3E)-5-[3-chloro-6-hydroxy-2-methoxy-5-[(1E)-(methoxyimino)methyl]-4-methylphenyl]-3-methylpenta-1,3-dien-1-yl]-2,3,4-trimethylcyclohexylidene]amino]oxy)acetic acid]
- antitumor activity (in words) (CT26 tumor cells; 25 mg/kg p.o.): minor or no antitumor activity
- antitumor activity (in words) (CT26 tumor cells; 50 mg/kg p.o.): minor or no antitumor activity
- TGI (%) (CT26 tumor cells; [4]): −1.4%
- Tumor volume (mm^3, on Day 23) (CT26 tumor cells; [4]): 6,483 ± 310 mm^3
- TGI (%) (CT26 tumor cells; [5]): 6.5%
- Tumor volume (mm^3, on Day 23) (CT26 tumor cells; [5]): 6,056 ± 689 mm^3

Compound: COc1c(Cl)c(C)c(C=O)c(O)c1C/C=C(C)/C=C/[C@@]1(C)[C@H](C)CCC(=O)[C@@H]1C [MAC, 4-O-Methy-ascochlorin]
- AMPK activation in HepG2 cell (AMPK in HepG2 cell): ability for activating AMPK
- Solubility pH 4.0 PBS (pH 4): <0.08 μM
- Solubility pH 7.4 PBS (pH 7.4): 0.07 μM
